{
  "source": "patent US8933230B2",
  "about": "“Phosphorus-containing group-substituted quinoline, its preparation process, medical composition containing the compounds and application” (priority 2011, dated 2015)",
  "test_in_all_cases": "KinomeScan kinase panel",
  "assay_type_in_all_cases": "binding",
  "key": {"RIPK1": {"biological_target": "T1, RIPK1 (Homo sapiens, UniProt Q13546)", "T1 construct": "purchased DiscoveRx Corporation", "method_in_brief": "(§1)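 KinomeScan, 442 kinases incl. mutants; cpd 1000 nM; single-concentration inhibition.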"}, "PLK3": {"biological_target": "T2, PLK3 (Homo sapiens, UniProt Q9H4B4)", "T2 construct": "purchased DiscoveRx Corporation (KinomeScan)", "method_in_brief": "as §1"}, "PDGFRB": {"biological_target": "T3, PDGFRB (Homo sapiens, UniProt P09619)", "T3 construct": "purchased DiscoveRx Corporation (KinomeScan panel)", "T3 sequence (P09619 33-1106)": "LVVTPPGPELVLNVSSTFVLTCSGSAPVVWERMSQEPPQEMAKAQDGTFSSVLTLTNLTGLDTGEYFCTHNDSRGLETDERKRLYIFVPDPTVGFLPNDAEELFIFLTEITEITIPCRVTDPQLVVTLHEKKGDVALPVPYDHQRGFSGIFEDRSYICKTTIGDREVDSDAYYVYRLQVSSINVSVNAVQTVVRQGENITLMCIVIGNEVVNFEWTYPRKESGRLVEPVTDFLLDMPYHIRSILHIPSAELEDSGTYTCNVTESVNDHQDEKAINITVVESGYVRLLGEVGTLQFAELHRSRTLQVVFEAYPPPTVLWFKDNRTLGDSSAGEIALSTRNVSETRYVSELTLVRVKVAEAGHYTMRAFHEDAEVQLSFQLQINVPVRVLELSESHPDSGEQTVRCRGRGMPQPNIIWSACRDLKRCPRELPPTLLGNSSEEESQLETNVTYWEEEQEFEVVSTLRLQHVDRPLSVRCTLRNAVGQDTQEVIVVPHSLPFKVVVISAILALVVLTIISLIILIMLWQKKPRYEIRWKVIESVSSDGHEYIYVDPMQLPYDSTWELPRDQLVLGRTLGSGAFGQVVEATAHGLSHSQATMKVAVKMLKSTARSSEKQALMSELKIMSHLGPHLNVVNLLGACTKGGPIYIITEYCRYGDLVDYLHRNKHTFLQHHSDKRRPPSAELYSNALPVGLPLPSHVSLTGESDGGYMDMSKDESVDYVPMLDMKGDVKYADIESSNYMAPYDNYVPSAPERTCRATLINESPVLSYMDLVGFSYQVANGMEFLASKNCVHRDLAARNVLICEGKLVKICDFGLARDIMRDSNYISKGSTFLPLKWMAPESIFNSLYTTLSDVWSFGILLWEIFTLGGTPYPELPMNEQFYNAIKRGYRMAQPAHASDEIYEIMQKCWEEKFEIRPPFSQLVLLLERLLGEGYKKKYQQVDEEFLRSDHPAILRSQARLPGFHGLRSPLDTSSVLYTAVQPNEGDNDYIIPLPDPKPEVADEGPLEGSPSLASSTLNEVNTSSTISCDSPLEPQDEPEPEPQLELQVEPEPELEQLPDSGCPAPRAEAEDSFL", "method_in_brief": "as §1"}, "FLT3": {"biological_target": "T4, FLT3 (Homo sapiens, UniProt P36888)", "T4 construct": "purchased DiscoveRx Corporation (KinomeScan)", "method_in_brief": "as §1"}, "EPHB2": {"biological_target": "T5, EPHB2 (Homo sapiens, UniProt P29323)", "T5 construct": "purchased DiscoveRx Corporation (KinomeScan)", "T5 sequence (P29323 19-1055)": "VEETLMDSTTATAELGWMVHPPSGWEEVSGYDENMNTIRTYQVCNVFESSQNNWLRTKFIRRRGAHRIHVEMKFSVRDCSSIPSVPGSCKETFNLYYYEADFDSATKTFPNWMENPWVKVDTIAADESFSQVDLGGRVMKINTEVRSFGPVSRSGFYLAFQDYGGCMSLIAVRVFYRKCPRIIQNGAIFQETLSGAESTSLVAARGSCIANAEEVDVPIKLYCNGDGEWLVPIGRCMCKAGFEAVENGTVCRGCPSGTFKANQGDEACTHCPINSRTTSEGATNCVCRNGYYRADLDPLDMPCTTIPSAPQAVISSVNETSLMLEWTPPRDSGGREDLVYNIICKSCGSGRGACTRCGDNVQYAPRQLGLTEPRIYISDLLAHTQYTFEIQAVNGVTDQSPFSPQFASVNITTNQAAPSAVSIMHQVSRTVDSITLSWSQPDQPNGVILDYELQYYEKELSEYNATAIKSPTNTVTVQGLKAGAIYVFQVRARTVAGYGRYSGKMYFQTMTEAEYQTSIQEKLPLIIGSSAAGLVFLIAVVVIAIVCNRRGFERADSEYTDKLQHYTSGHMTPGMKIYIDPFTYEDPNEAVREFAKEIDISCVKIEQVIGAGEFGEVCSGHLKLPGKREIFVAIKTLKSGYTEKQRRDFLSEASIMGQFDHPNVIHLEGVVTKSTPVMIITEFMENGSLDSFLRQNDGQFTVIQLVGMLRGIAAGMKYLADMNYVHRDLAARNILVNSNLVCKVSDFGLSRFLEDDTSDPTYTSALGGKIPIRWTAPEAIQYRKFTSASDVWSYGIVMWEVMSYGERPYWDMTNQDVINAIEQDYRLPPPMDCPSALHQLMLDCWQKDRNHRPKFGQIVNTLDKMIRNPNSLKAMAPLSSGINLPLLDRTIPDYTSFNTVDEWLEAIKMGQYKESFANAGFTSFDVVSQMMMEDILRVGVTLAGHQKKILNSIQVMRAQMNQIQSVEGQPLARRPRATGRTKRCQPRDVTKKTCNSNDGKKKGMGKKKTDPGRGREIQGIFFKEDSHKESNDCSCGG", "method_in_brief": "as §1"}, "ERK1": {"biological_target": "T6, ERK1 (Homo sapiens, UniProt P27361)", "T6 construct": "purchased DiscoveRx Corporation (KinomeScan)", "method_in_brief": "as §1"}, "CSNK1G3": {"biological_target": "T7, CSNK1G3 (Homo sapiens, UniProt Q9Y6M4)", "T7 construct": "purchased DiscoveRx Corporation (KinomeScan)", "method_in_brief": "as §1"}, "RET (V804L)": {"biological_target": "T8, RET (V804L) (Homo sapiens, UniProt P07949, V804L)", "T8 construct": "purchased DiscoveRx Corporation", "T8 sequence (P07949 29-1114 V804L)": "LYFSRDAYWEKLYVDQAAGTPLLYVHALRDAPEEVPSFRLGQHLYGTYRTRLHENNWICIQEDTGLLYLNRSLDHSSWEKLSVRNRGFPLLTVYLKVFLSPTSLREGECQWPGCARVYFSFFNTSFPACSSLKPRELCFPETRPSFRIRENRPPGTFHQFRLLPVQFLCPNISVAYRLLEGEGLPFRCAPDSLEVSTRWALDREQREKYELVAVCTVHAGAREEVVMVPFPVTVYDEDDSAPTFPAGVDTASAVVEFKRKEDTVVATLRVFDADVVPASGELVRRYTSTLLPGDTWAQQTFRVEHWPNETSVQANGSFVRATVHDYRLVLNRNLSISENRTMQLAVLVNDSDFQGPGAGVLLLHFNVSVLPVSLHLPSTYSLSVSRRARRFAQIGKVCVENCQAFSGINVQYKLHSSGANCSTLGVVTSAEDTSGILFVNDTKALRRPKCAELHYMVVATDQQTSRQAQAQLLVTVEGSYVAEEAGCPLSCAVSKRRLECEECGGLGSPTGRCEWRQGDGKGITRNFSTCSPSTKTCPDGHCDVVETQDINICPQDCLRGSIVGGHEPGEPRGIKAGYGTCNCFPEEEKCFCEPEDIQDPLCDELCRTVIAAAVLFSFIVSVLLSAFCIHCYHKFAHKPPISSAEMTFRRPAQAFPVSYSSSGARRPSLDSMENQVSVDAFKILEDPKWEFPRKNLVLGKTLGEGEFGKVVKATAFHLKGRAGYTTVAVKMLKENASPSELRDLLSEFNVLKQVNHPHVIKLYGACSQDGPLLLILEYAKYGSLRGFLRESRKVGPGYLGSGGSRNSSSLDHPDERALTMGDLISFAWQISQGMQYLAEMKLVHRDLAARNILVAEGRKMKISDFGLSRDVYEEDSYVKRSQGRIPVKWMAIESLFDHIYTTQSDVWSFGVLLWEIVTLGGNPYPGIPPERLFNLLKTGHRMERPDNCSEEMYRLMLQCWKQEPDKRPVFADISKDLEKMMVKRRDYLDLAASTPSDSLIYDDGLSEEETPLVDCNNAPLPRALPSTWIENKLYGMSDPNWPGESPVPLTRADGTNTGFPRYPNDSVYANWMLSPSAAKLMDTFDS", "method_in_brief": "as §1"}, "ROCK1": {"biological_target": "T9, ROCK1 (Homo sapiens, UniProt Q13464)", "T9 construct": "purchased DiscoveRx Corporation", "method_in_brief": "as §1"}, "CAMK2B": {"biological_target": "T10, CAMK2B (Homo sapiens, UniProt Q13554)", "T10 construct": "purchased DiscoveRx Corporation (KinomeScan)", "method_in_brief": "as §1"}, "[1]": {"biological_target": "T11, RPS6KA4(kin.Dom.1-N-termimal) (Homo sapiens, UniProt O75676)", "T11 construct": "kin.Dom.1; purchased DiscoveRx Corporation", "T11 sequence (O75676 33-301 limits assumed)": "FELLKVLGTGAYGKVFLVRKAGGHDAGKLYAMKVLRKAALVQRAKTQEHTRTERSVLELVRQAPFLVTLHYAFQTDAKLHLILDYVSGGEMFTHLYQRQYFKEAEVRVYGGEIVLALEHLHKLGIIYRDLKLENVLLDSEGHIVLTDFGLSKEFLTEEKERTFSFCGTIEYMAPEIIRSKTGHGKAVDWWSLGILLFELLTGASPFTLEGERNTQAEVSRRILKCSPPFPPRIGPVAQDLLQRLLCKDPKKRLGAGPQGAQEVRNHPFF", "method_in_brief": "as §1"}, "BMPR1A": {"biological_target": "T12, BMPR1A (Homo sapiens, UniProt P36894)", "T12 construct": "purchased DiscoveRx Corporation (KinomeScan)", "method_in_brief": "as §1"}, "ACVRL1": {"biological_target": "T13, ACVRL1 (Homo sapiens, UniProt P37023)", "T13 construct": "purchased DiscoveRx Corporation (KinomeScan)", "method_in_brief": "as §1"}, "SgK110": {"biological_target": "T14, SgK110 (Homo sapiens, UniProt P0C264)", "T14 construct": "purchased DiscoveRx Corporation (KinomeScan)", "method_in_brief": "as §1"}, "TNK2": {"biological_target": "T15, TNK2 (Homo sapiens, UniProt Q07912)", "T15 construct": "purchased DiscoveRx Corporation (KinomeScan)", "method_in_brief": "as §1"}, "FER": {"biological_target": "T16, FER (Homo sapiens, UniProt P16591)", "T16 construct": "purchased DiscoveRx Corporation (KinomeScan)", "method_in_brief": "as §1"}, "SBK1": {"biological_target": "T17, SBK1 (Homo sapiens, UniProt Q52WX2)", "T17 construct": "purchased DiscoveRx Corporation (KinomeScan)", "method_in_brief": "as §1"}, "NEK7": {"biological_target": "T18, NEK7 (Homo sapiens, UniProt Q8TDX7)", "T18 construct": "purchased DiscoveRx Corporation (KinomeScan panel)", "method_in_brief": "as §1"}, "CDK3": {"biological_target": "T19, CDK3 (Homo sapiens, UniProt Q00526)", "T19 construct": "purchased DiscoveRx Corporation (KinomeScan)", "method_in_brief": "as §1"}, "AURKB": {"biological_target": "T20, AURKB (Homo sapiens, UniProt Q96GD4)", "T20 construct": "purchased DiscoveRx Corporation (KinomeScan)", "method_in_brief": "as §1"}, "AAK1": {"biological_target": "T21, AAK1 (Homo sapiens, UniProt Q2M2I8)", "T21 construct": "purchased DiscoveRx Corporation (KinomeScan)", "method_in_brief": "as §1"}, "CDKL1": {"biological_target": "T22, CDKL1 (Homo sapiens, UniProt Q00532)", "T22 construct": "purchased DiscoveRx Corporation (KinomeScan)", "method_in_brief": "as §1"}, "CDKL5": {"biological_target": "T23, CDKL5 (Homo sapiens, UniProt O76039)", "T23 construct": "purchased DiscoveRx Corporation (KinomeScan)", "method_in_brief": "as §1"}, "DCAMKL1": {"biological_target": "T24, DCAMKL1 (Homo sapiens, UniProt O15075)", "T24 construct": "purchased DiscoveRx Corporation (KinomeScan)", "method_in_brief": "as §1"}, "MET(M1250T)": {"biological_target": "T25, MET(M1250T) (Homo sapiens, UniProt P08581, M1250T)", "T25 construct": "purchased DiscoveRx Corporation (KinomeScan)", "method_in_brief": "as §1"}, "CSNK1A1": {"biological_target": "T26, CSNK1A1 (Homo sapiens, UniProt P48729)", "T26 construct": "purchased DiscoveRx Corporation (KinomeScan)", "method_in_brief": "as §1"}, "PFTAIRE2": {"biological_target": "T27, PFTAIRE2 (Homo sapiens, UniProt Q96Q40)", "T27 construct": "purchased DiscoveRx Corporation (KinomeScan)", "method_in_brief": "as §1"}, "SLK": {"biological_target": "T28, SLK (Homo sapiens, UniProt Q9H2G2)", "T28 construct": "purchased DiscoveRx Corporation (KinomeScan)", "method_in_brief": "as §1"}, "GRK7": {"biological_target": "T29, GRK7 (Homo sapiens, UniProt Q8WTQ7)", "T29 construct": "purchased DiscoveRx Corporation (KinomeScan)", "method_in_brief": "as §1"}, "ULK3": {"biological_target": "T30, ULK3 (Homo sapiens, UniProt Q6PHR2)", "T30 construct": "purchased DiscoveRx Corporation (KinomeScan service)", "method_in_brief": "as §1"}, "CIT": {"biological_target": "T31, CIT (Homo sapiens, UniProt O14578)", "T31 construct": "purchased DiscoveRx Corporation (KinomeScan)", "method_in_brief": "as §1"}, "PIK3CA (H1047L)": {"biological_target": "T32, PIK3CA (H1047L) (Homo sapiens, UniProt P42336, H1047L)", "T32 construct": "purchased DiscoveRx Corporation (KinomeScan)", "T32 sequence (P42336 whole entry H1047L)": "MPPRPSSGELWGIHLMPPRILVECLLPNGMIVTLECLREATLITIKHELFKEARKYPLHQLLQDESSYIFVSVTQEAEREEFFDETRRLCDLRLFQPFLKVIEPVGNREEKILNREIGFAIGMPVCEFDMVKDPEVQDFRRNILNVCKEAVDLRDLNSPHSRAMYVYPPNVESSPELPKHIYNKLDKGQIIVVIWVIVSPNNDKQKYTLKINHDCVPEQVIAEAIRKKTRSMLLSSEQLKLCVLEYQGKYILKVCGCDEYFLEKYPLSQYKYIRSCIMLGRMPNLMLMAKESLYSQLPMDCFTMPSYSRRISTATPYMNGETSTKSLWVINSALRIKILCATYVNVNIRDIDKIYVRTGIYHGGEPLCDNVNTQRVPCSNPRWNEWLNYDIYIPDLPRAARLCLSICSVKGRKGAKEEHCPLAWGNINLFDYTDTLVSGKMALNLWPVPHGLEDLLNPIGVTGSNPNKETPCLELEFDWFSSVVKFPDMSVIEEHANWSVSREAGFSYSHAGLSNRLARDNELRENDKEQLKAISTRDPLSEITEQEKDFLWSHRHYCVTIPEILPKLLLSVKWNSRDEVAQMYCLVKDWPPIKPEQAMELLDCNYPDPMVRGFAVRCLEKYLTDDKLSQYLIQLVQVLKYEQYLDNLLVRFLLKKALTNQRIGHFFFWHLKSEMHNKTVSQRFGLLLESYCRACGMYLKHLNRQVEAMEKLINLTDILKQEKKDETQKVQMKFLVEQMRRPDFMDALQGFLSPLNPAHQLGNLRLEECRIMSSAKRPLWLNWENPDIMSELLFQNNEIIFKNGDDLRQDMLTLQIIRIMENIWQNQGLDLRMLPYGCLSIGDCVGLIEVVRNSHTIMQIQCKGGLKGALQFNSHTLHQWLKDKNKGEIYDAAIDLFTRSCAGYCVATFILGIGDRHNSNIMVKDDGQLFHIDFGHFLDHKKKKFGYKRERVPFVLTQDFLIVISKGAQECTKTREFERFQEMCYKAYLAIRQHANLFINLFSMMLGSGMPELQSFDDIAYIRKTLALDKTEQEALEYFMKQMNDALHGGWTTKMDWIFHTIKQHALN", "method_in_brief": "as §1"}, "BIKE": {"biological_target": "T33, BIKE (Homo sapiens, UniProt Q9NSY1)", "T33 construct": "purchased DiscoveRx Corporation (KinomeScan)", "method_in_brief": "as §1"}, "YES": {"biological_target": "T34, YES (Homo sapiens, UniProt P07947)", "T34 construct": "purchased DiscoveRx Corporation (KinomeScan service)", "T34 sequence (P07947 whole entry)": "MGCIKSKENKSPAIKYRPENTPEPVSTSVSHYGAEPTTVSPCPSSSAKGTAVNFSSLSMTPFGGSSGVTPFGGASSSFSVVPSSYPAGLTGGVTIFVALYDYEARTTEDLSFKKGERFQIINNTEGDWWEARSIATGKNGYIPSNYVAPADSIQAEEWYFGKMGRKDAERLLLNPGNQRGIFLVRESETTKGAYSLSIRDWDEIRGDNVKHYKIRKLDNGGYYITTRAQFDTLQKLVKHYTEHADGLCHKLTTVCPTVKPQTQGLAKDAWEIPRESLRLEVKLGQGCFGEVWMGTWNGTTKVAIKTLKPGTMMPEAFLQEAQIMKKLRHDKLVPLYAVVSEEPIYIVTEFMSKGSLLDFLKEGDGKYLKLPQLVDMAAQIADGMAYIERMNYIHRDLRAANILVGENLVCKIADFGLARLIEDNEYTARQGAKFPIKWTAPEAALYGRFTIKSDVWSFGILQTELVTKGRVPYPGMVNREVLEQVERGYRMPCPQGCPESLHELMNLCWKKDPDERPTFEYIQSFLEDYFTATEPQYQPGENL", "method_in_brief": "as §1"}, "PKN2": {"biological_target": "T35, PKN2 (Homo sapiens, UniProt Q16513)", "T35 construct": "purchased DiscoveRx Corporation (KinomeScan)", "method_in_brief": "as §1"}, "ZAP7C": {"biological_target": "T36, ZAP7C (Homo sapiens, UniProt P43403)", "T36 construct": "purchased DiscoveRx Corporation (KinomeScan service)", "method_in_brief": "as §1"}},
  "data": [
    {"smiles": "CCOP(=O)(CN1CCC(COc2cc3nccc(Oc4ccc(NC(=O)C5(C(=O)Nc6ccc(F)cc6)CC5)cc4F)c3cc2OC)CC1)OCC", "note": "[Example 10, N1-[4-[[7-[[1-(diethoxyphosphorylmethyl)-4-piperidinyl]methoxyl]-6-methoxyl-4-quinolyl]oxyl]-3-fluorophenyl]-N1′-(4-fluorophenyl)cyclopropane-1,1-dicarboxamide]", "values": [
      {"measurement": "% Ctrl@1000 nM", "setting": "RIPK1", "value": 99, "unit": "% Ctrl"},
      {"measurement": "% Ctrl@1000 nM", "setting": "PLK3", "value": 100, "unit": "% Ctrl"},
      {"measurement": "% Ctrl@1000 nM", "setting": "PDGFRB", "value": 0, "unit": "% Ctrl"},
      {"measurement": "% Ctrl@1000 nM", "setting": "FLT3", "value": 2.3, "unit": "% Ctrl"},
      {"measurement": "% Ctrl@1000 nM", "setting": "EPHB2", "value": 2.8, "unit": "% Ctrl"},
      {"measurement": "% Ctrl@1000 nM", "setting": "ERK1", "value": 99, "unit": "% Ctrl"},
      {"measurement": "% Ctrl@1000 nM", "setting": "CSNK1G3", "value": 100, "unit": "% Ctrl"},
      {"measurement": "% Ctrl@1000 nM", "setting": "RET (V804L)", "value": 0.35, "unit": "% Ctrl"},
      {"measurement": "% Ctrl@1000 nM", "setting": "ROCK1", "value": 100, "unit": "% Ctrl"},
      {"measurement": "% Ctrl@1000 nM", "setting": "CAMK2B", "value": 100, "unit": "% Ctrl"},
      {"measurement": "% Ctrl@1000 nM", "setting": "[1]", "value": 76, "unit": "% Ctrl"},
      {"measurement": "% Ctrl@1000 nM", "setting": "BMPR1A", "value": 100, "unit": "% Ctrl"},
      {"measurement": "% Ctrl@1000 nM", "setting": "ACVRL1", "value": 100, "unit": "% Ctrl"},
      {"measurement": "% Ctrl@1000 nM", "setting": "SgK110", "value": 100, "unit": "% Ctrl"},
      {"measurement": "% Ctrl@1000 nM", "setting": "TNK2", "value": 94, "unit": "% Ctrl"},
      {"measurement": "% Ctrl@1000 nM", "setting": "FER", "value": 50, "unit": "% Ctrl"},
      {"measurement": "% Ctrl@1000 nM", "setting": "SBK1", "value": 100, "unit": "% Ctrl"},
      {"measurement": "% Ctrl@1000 nM", "setting": "NEK7", "value": 100, "unit": "% Ctrl"},
      {"measurement": "% Ctrl@1000 nM", "setting": "CDK3", "value": 100, "unit": "% Ctrl"},
      {"measurement": "% Ctrl@1000 nM", "setting": "AURKB", "value": 74, "unit": "% Ctrl"},
      {"measurement": "% Ctrl@1000 nM", "setting": "AAK1", "value": 91, "unit": "% Ctrl"},
      {"measurement": "% Ctrl@1000 nM", "setting": "CDKL1", "value": 100, "unit": "% Ctrl"},
      {"measurement": "% Ctrl@1000 nM", "setting": "CDKL5", "value": 100, "unit": "% Ctrl"},
      {"measurement": "% Ctrl@1000 nM", "setting": "DCAMKL1", "value": 91, "unit": "% Ctrl"},
      {"measurement": "% Ctrl@1000 nM", "setting": "MET(M1250T)", "value": 3, "unit": "% Ctrl"},
      {"measurement": "% Ctrl@1000 nM", "setting": "CSNK1A1", "value": 100, "unit": "% Ctrl"},
      {"measurement": "% Ctrl@1000 nM", "setting": "PFTAIRE2", "value": 87, "unit": "% Ctrl"},
      {"measurement": "% Ctrl@1000 nM", "setting": "SLK", "value": 7.4, "unit": "% Ctrl"},
      {"measurement": "% Ctrl@1000 nM", "setting": "GRK7", "value": 100, "unit": "% Ctrl"},
      {"measurement": "% Ctrl@1000 nM", "setting": "ULK3", "value": 82, "unit": "% Ctrl"},
      {"measurement": "% Ctrl@1000 nM", "setting": "CIT", "value": 100, "unit": "% Ctrl"},
      {"measurement": "% Ctrl@1000 nM", "setting": "PIK3CA (H1047L)", "value": 100, "unit": "% Ctrl"},
      {"measurement": "% Ctrl@1000 nM", "setting": "BIKE", "value": 100, "unit": "% Ctrl"},
      {"measurement": "% Ctrl@1000 nM", "setting": "YES", "value": 20, "unit": "% Ctrl"},
      {"measurement": "% Ctrl@1000 nM", "setting": "PKN2", "value": 2.6, "unit": "% Ctrl"},
      {"measurement": "% Ctrl@1000 nM", "setting": "ZAP7C", "value": 81, "unit": "% Ctrl"}
    ]}
  ]
}
